These results are taken from patent publication US20230265151A1, “GIP/GLP1 CO-AGONIST COMPOUNDS” (priority 2020, published 2023).

What all share (type): cell-based
One test concerns the target T1, hGIPR (Homo sapiens, UniProt P48546).
T1 construct: expressed in transfected cells
T1 sequence (P48546 22-466): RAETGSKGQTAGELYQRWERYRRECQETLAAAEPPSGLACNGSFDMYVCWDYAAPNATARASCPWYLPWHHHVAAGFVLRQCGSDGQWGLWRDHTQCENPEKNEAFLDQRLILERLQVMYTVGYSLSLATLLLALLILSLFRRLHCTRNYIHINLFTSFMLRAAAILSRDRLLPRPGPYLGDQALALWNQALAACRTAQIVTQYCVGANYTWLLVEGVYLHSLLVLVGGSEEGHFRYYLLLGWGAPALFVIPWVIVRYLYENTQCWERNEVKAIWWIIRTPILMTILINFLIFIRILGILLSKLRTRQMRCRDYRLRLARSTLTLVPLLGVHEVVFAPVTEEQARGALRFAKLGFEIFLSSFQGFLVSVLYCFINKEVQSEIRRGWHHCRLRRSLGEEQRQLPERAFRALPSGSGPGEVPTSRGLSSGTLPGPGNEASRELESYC
In words: Functional cAMP formation (HTRF) in HEK-293 clonal cells expressing hGIPR, 0.1% bovine casein, without or with 1.0% human serum albumin. The conditions noted are these: for EC50: geometric mean, read-out: hGIPR EC50, nM (SEM, n). The method in brief:
(§1)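 Cells were stimulated with peptide for 30 min at 37° C, then intracellular cAMP was measured by competitive HTRF (665/620 nm ratio) and converted to nM using a cAMP standard curve. Relative EC50 and Emax came from four-parameter logistic fits of percent maximal response against peptide concentration.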
A general note: Cyclic AMP is a second messenger, typically raised through Gs and lowered through Gi signalling.

The target of a further test is T2, hGCGR (Homo sapiens, UniProt P47871).
T2 construct: expressed in transfected cells
T2 sequence (P47871 26-477): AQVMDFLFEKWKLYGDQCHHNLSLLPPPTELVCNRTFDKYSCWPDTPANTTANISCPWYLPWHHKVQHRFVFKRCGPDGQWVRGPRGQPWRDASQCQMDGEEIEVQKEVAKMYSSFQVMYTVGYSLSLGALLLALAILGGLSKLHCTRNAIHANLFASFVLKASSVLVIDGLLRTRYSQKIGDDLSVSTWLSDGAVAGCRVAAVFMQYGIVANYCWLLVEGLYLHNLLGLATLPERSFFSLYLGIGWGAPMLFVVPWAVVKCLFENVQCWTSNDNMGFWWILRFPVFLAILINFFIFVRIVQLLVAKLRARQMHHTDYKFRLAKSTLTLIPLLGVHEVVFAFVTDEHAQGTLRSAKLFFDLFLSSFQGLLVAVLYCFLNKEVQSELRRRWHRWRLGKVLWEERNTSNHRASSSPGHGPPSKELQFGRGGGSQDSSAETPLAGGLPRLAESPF
In words: Functional cAMP formation (HTRF) in HEK-293 clonal cells expressing hGCGR, 0.1% bovine casein, without or with 1.0% human serum albumin. The following applies: geometric mean, read-out: hGCGR EC50, nM (SEM, n). The method in brief:
as §1

A further test concerns the target hGLP-1R (Homo sapiens, UniProt P43220). In words: Functional cAMP formation (HTRF) in HEK-293 clonal cells expressing hGLP-1R, 0.1% bovine casein, without or with 1.0% human serum albumin. The arrangement: expressed in transfected cells. The conditions noted are these: for EC50: geometric mean, read-out: hGLP-1R EC50, nM (SEM, n). The procedure, abridged: as §1
[1] abbreviates: 0.1% bovine casein and 1.0% human serum albumin, 37° C.
The mark [2] stands for this setting: cAMP, incubated at 37° C., 0.1% bovine casein (no human serum albumin).

Like-named read-outs stand apart in the source and are kept apart here. *1 amine or outer side, *2 acyl side, *3 side chain or, on linkers, in order; H or OH if unused. Where a SMILES comes first, the peptide text is derived from it. Side-chain parts run from the residue outwards. [ ]: non-standard residue; d: D form. The star is where a group is joined. αMePhe(2-F) = C[C@](N)(Cc1ccccc1F)C(=O)O; γGlu = O=C(O)[C@H](CCC(=O)[*:2])N[*:1]; C14 diacid = O=C(O)CCCCCCCCCCCCC(=O)*; εLys = N[C@@H](CCCCN[*:1])C(=O)[*:2]; αMeY = C[C@](N)(Cc1ccc(O)cc1)C(=O)O; 4Pal = N[C@@H](Cc1ccncc1)C(=O)O; αMeL = CC(C)C[C@](C)(N)C(=O)O; Orn = NCCC[C@H](N)C(=O)O; Aib = CC(C)(N)C(=O)O A value given as a limit tells only on which side of the number the result lay.

Chain of hGLP-1R (P43220 24-463): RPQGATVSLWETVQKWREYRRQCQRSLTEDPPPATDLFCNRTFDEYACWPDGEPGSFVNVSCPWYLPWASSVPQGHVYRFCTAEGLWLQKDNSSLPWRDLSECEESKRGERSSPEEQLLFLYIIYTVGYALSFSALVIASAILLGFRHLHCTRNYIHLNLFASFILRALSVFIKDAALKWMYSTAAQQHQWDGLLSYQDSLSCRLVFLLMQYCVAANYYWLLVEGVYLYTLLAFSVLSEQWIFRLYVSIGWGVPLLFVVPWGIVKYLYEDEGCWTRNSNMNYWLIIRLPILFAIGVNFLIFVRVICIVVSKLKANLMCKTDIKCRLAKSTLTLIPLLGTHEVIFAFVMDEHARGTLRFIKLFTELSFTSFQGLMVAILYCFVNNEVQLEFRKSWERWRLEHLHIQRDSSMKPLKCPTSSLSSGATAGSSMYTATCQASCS

Usually EC50 stands for the concentration at which the effect is half-maximal. In general, Emax refers to the greatest response seen or fitted, relative to the assay's reference. On to `CC[C@H](C)[C@H](NC(=O)[C@H](CC(C)C)NC(=O)[C@](C)(Cc1ccc(O)cc1)NC(=O)[C@@H](CCC(=O)O)NC(=O)[C@@H](NC(=O)[C@H](Cc1ccccc1)NC(=O)[C@H](CCC(=O)O)NC(=O)C(C)(C)NC(=O)[C@H](CCC(N)=O)NC(=O)[C@H](C)NC(=O)[C@H](CCCCNC(=O)[C@@H](N)CCCCNC(=O)[C@@H](N)CCCCNC(=O)CC[C@H](NC(=O)CCCCCCCCCCCCC(=O)O)C(=O)O)NC(=O)[C@H](CCCN)NC(=O)[C@H](CC(=O)O)NC(=O)[C@H](CC(C)C)NC(=O)[C@](C)(CC(C)C)NC(=O)[C@@H](NC(=O)[C@H](CO)NC(=O)[C@H](Cc1ccncc1)NC(=O)[C@H](CC(=O)O)NC(=O)[C@H](CO)NC(=O)[C@@H](NC(=O)[C@](C)(Cc1ccccc1F)NC(=O)[C@@H](NC(=O)CNC(=O)[C@H](CCC(=O)O)NC(=O)C(C)(C)NC(=O)[C@@H](N)Cc1ccc(O)cc1)[C@@H](C)O)[C@@H](C)O)[C@@H](C)CC)[C@@H](C)CC)C(=O)N[C@@H](CCC(=O)O)C(=O)NCC(=O)NCC(=O)N[C@@H](CCCCNC(=O)[C@@H](N)CCCCNC(=O)[C@@H](N)CCCCNC(=O)CC[C@H](NC(=O)CCCCCCCCCCCCC(=O)O)C(=O)O)C(N)=O` [Example 187] (H-Y[Aib]EGT[αMePhe(2-F)]TSD[4Pal]SI[αMeL]LD[Orn]K([εLys-εLys-γGlu-C14 diacid])AQ[Aib]EFI[dE][αMeY]LIEGGK([εLys-εLys-γGlu-C14 diacid])-NH2; N-terminus assumed), for which the EC50 at hGIPR (setting [1]) was 0.939 nM; at hGIPR (setting [2]) it was 0.026 nM; at hGCGR (setting [1]) it was greater than 9950 nM; on hGCGR (setting [2]) it was greater than 9950 nM; on hGLP-1R (setting [1]) it was 18 nM; on hGLP-1R (setting [2]), 0.386 nM. Further, the Emax worked out at 79.3% at hGIPR (HEK293, 0.1% bovine casein and 1.0% human serum albumin, 37° C., percent of maximal response to GIP(1-42)NH2, read-out: hGIPR Emax, % ± SEM); 109% on hGLP-1R (HEK293, 0.1% bovine casein and 1.0% human serum albumin, 37° C., percent of maximal response to GLP-1(7-36)NH2, read-out: hGLP-1R Emax, % ± SEM).
